{"source": "patent US12427134B2", "about": "“Methods of reducing the risk of cardiovascular events in a subject with atrial fibrillation and/or atrial flutter” (priority 2019, dated 2025)", "test_system": "hypertriglyceridemic patients with cardiovascular disease or at high risk for cardiovascular disease", "experiment": "REDUCE-IT: time to first occurrence of adjudicated cardiovascular endpoint events (primary, key secondary, other secondary, tertiary; sensitivity and landmark analyses)", "type": "in vivo", "source_text": "The following study, also referred to as the REDUCE-IT clinical trial, was a large cardiovascular (CV) outcome trial designed to assess CV risk reduction benefit of AMR101 treatment (commercially known as VASCEPA®) versus placebo on the 5-point primary composite endpoint: CV death, non-fatal stroke, non-fatal myocardial infarction (MI), coronary revascularizations, or unstable angina requiring hospitalization.\nA multi-center, prospective, randomized, double-blind, placebo-controlled, parallel-group study was performed to evaluate the effect of AMR101 (4 g per day) on cardiovascular health and mortality in hypertriglyceridemic patients with cardiovascular disease or at high risk for cardiovascular disease. The intended expanded indication of the study was treatment with AMR101 as an add-on to statin therapy to reduce the risk of cardiovascular events in patients with clinical cardiovascular disease or with multiple risk factors for cardiovascular disease.\nThe primary objective of this study was, in patients at LDL-C goal while on statin therapy, with established cardiovascular disease (CVD) or at high risk for CVD, and hypertriglyceridemia (e.g., fasting triglycerides (TG) ≥200 mg/dL and <500 mg/dL), to evaluate the effect of AMR101 4 g daily on time from randomization to first occurrence of any component of the composite of the following major CV events: CV death; nonfatal MI; (including silent MI; electrocardiograms (ECGs) were performed annually for the detection of silent MIs); nonfatal stroke; coronary revascularization; and unstable angina determined to be caused by myocardial ischemia by invasive/non-invasive testing and requiring emergent hospitalization.\nThe key secondary objective of this study was to evaluate the effect of AMR101 4 g daily on the time from randomization to the first occurrence of the composite of following major CV events: CV death, nonfatal MI (including silent MI), and nonfatal stroke.\nOther secondary objectives for this study were to evaluate the effect of therapy on time from randomization to the first occurrence of the following individual or composite endpoints: composite of CV death or nonfatal MI (including silent MI); fatal or nonfatal MI (including silent MI); non-elective coronary revascularization represented as the composite of emergent or urgent classifications; CV death; unstable angina determined to be caused by myocardial ischemia by invasive/non-invasive testing and requiring emergent hospitalization; fatal or nonfatal stroke; composite of total mortality, nonfatal MI (including silent MI), or nonfatal stroke; and total mortality.\nThe key tertiary objectives for this study were to evaluate the effect of AMR101 4 g daily from baseline and percent change from baseline in fasting triglycerides and LDL-C. […]", "key": {"[1]": {"conditions": "ITT population, listed as Icosapent Ethyl"}, "[2]": {"conditions": "clinically adjudicated arrhythmia sequelae, safety population"}, "[3]": {"conditions": "clinically adjudicated arrhythmia sequelae, safety population, vs placebo"}, "[4]": {"conditions": "determined programmatically, ITT"}, "[5]": {"conditions": "excludes patients with Type 1 or Type 2 diabetes at baseline, ITT"}, "[6]": {"conditions": "tertiary endpoint, first occurrence, ITT"}, "[7]": {"conditions": "vs placebo, listed as Icosapent Ethyl"}, "[8]": {"conditions": "vs placebo, listed as icosapent ethyl"}}}
{"smiles": "CC/C=C\\C/C=C\\C/C=C\\C/C=C\\C/C=C\\CCCC(=O)OCC", "note": "[AMR101, eicosapentaenoic acid ethyl ester]", "values": [{"measurement": "New Heart Failure (newly emergent CHF), HR (95% CI)", "setting": "[1]", "result": "0.95 (0.77, 1.17)"}, {"measurement": "New Heart Failure (newly emergent CHF), patients with event", "setting": "[1]", "result": "(4.1%)"}, {"measurement": "New Heart Failure Requiring Hospitalization, HR (95% CI)", "setting": "[1]", "result": "0.97 (0.77, 1.22)"}, {"measurement": "New Heart Failure Requiring Hospitalization, patients with event", "setting": "[1]", "result": "(3.4%)"}, {"measurement": "New Onset Hypertension, HR (95% CI)", "setting": "[1]", "result": "0.86 (0.41-1.80)"}, {"measurement": "Peripheral Artery Disease, HR (95% CI)", "setting": "[1]", "result": "0.97 (0.78-1.21)"}, {"measurement": "Peripheral Artery Disease, patients with event", "setting": "[1]", "result": "(3.8) %"}, {"measurement": "Sudden Cardiac Death, HR (95% CI)", "setting": "[1]", "result": "0.69 (0.50, 0.96)"}, {"measurement": "Sudden Cardiac Death, patients with event", "setting": "[1]", "result": "(1.5%)"}, {"measurement": "Transient Ischemic Attack, patients with event", "setting": "[1]", "result": "(1.6%)"}, {"measurement": "Urgent Revascularization, HR (95% CI)", "setting": "[1]", "result": "0.66 (0.54, 0.79)"}, {"measurement": "Urgent Revascularization, patients with event", "setting": "[1]", "result": "(4.4%)"}, {"measurement": "Deaths with undetermined cause", "setting": "Safety population", "result": "36 (0.9) n (%)"}, {"measurement": "Non-CV deaths", "setting": "Safety population", "result": "100 (2.4) n (%)"}, {"measurement": "Total mortality", "setting": "Safety population, N = 4089", "result": "274 (6.7) n (%)"}, {"measurement": "Coronary Revascularization, events (%)", "setting": "clinically adjudicated arrhythmia sequelae, composite of emergent, urgent, elective, salvage, safety population", "result": "(9.2%)"}, {"measurement": "Any Myocardial Infarction, events (%)", "setting": "[2]", "result": "(6.1%)"}, {"measurement": "Any Stroke, events (%)", "setting": "[2]", "result": "(2.4%)"}, {"measurement": "Cardiac Arrest, events (%)", "setting": "[2]", "result": "(0.5%)"}, {"measurement": "Carotid Revascularization, events (%)", "setting": "[2]", "result": "(0.8%)"}, {"measurement": "Sudden Cardiac Death, events (%)", "setting": "[2]", "result": "(1.5%)"}, {"measurement": "Transient Ischemic Attack, events (%)", "setting": "[2]", "result": "(1.6%)"}, {"measurement": "Any Myocardial Infarction, HR (95% CI)", "setting": "[3]", "result": "0.69 (0.58 to 0.81)"}, {"measurement": "Any Stroke, HR (95% CI)", "setting": "[3]", "result": "0.72 (0.55 to 0.93)"}, {"measurement": "Cardiac Arrest, HR (95% CI)", "setting": "[3]", "result": "0.52 (0.31 to 0.86)"}, {"measurement": "Sudden Cardiac Death, HR (95% CI)", "setting": "[3]", "result": "0.69 (0.50 to 0.96)"}, {"measurement": "Transient Ischemic Attack, HR (95% CI)", "setting": "[3]", "result": "1.32 (0.91 to 1.92)"}, {"measurement": "Coronary Revascularization, HR (95% CI) Icosapent Ethyl/Placebo", "setting": "composite of emergent, urgent, elective, salvage, ITT", "result": "0.66 (0.58-0.76)"}, {"measurement": "Coronary Revascularization, patients with event (%)", "setting": "composite of emergent, urgent, elective, salvage, first occurrence, ITT", "result": "(9.2) %"}, {"measurement": "New Onset Hypertension, HR (95% CI) Icosapent Ethyl/Placebo", "setting": "[4]", "result": "0.86 (0.41-1.80)"}, {"measurement": "New Onset Hypertension, patients with event (%)", "setting": "[4]", "result": "(0.3) %"}, {"measurement": "New Onset Type 2 Diabetes, HR (95% CI) Icosapent Ethyl/Placebo", "setting": "[5]", "result": "1.04 (0.73-1.47)"}, {"measurement": "New Onset Type 2 Diabetes, patients with event (%)", "setting": "[5]", "result": "(3.8) %"}, {"measurement": "Primary endpoint, risk reduction", "setting": "post hoc analysis excluding patients with diarrhea", "result": 25, "unit": "%"}, {"measurement": "Cardiac Arrest, HR (95% CI) Icosapent Ethyl/Placebo", "setting": "tertiary endpoint, ITT", "result": "0.52 (0.31-0.86)"}, {"measurement": "Elective Revascularization, HR (95% CI) Icosapent Ethyl/Placebo", "setting": "tertiary endpoint, ITT", "result": "0.68 (0.57-0.82)"}, {"measurement": "Emergent Revascularization, HR (95% CI) Icosapent Ethyl/Placebo", "setting": "tertiary endpoint, ITT", "result": "0.62 (0.42-0.92)"}, {"measurement": "Ischemic Stroke, HR (95% CI) Icosapent Ethyl/Placebo", "setting": "tertiary endpoint, ITT", "result": "0.64 (0.49-0.85)"}, {"measurement": "Newly Emergent CHF Requiring Hospitalization, HR (95% CI) Icosapent Ethyl/Placebo", "setting": "tertiary endpoint, ITT", "result": "0.97 (0.77-1.22)"}, {"measurement": "Newly Emergent CHF, HR (95% CI) Icosapent Ethyl/Placebo", "setting": "tertiary endpoint, ITT", "result": "0.95 (0.77-1.17)"}, {"measurement": "Peripheral Artery Disease, HR (95% CI) Icosapent Ethyl/Placebo", "setting": "tertiary endpoint, ITT", "result": "0.97 (0.78-1.21)"}, {"measurement": "Salvage Revascularization, HR (95% CI) Icosapent Ethyl/Placebo", "setting": "tertiary endpoint, ITT", "result": "0.00 (0.00-0.00)"}, {"measurement": "Sudden Cardiac Death, HR (95% CI) Icosapent Ethyl/Placebo", "setting": "tertiary endpoint, ITT", "result": "0.69 (0.50-0.96)"}, {"measurement": "Transient Ischemic Attack, HR (95% CI) Icosapent Ethyl/Placebo", "setting": "tertiary endpoint, ITT", "result": "1.32 (0.91-1.92)"}, {"measurement": "Urgent Revascularization, HR (95% CI) Icosapent Ethyl/Placebo", "setting": "tertiary endpoint, ITT", "result": "0.66 (0.54-0.79)"}, {"measurement": "Amputation for PVD, patients with event (%)", "setting": "[6]", "result": "(0.5) %"}, {"measurement": "Cardiac Arrest, patients with event (%)", "setting": "[6]", "result": "(0.5) %"}, {"measurement": "Cardiac Arrhythmia Requiring Hospitalization of ≥24 Hours, patients with event (%)", "setting": "[6]", "result": "(4.6) %"}, {"measurement": "Carotid Revascularization, patients with event (%)", "setting": "[6]", "result": "(0.8) %"}, {"measurement": "Elective Revascularization, patients with event (%)", "setting": "[6]", "result": "(4.7) %"}, {"measurement": "Emergent Revascularization, patients with event (%)", "setting": "[6]", "result": "(1.0) %"}, {"measurement": "Hemorrhagic Stroke, patients with event (%)", "setting": "[6]", "result": "(0.3) %"}, {"measurement": "Ischemic Stroke, patients with event (%)", "setting": "[6]", "result": "(2.0) %"}, {"measurement": "Newly Emergent CHF Requiring Hospitalization, patients with event (%)", "setting": "[6]", "result": "(3.4) %"}, {"measurement": "Newly Emergent CHF, patients with event (%)", "setting": "[6]", "result": "(4.1) %"}, {"measurement": "Peripheral Artery Disease, patients with event (%)", "setting": "[6]", "result": "(3.8) %"}, {"measurement": "Salvage Revascularization, patients with event (%)", "setting": "[6]", "result": "(0.0) %"}, {"measurement": "Sudden Cardiac Death, patients with event (%)", "setting": "[6]", "result": "(1.5) %"}, {"measurement": "Transient Ischemic Attack, patients with event (%)", "setting": "[6]", "result": "(1.6) %"}, {"measurement": "Urgent Revascularization, patients with event (%)", "setting": "[6]", "result": "(4.4) %"}, {"measurement": "Total mortality utilizing known vital status data", "setting": "through 31 May 2018, assessed as of database lock", "result": 7.3, "unit": "%"}, {"measurement": "Key secondary composite endpoint, relative risk reduction", "setting": "vs placebo", "result": 26.5, "unit": "%"}, {"measurement": "Primary composite endpoint, relative risk reduction", "setting": "vs placebo", "result": 24.8, "unit": "%"}, {"measurement": "Key secondary composite endpoint, relative risk reduction", "setting": "[7]", "result": 26, "unit": "%"}, {"measurement": "Primary composite endpoint, relative risk reduction", "setting": "[7]", "result": 25, "unit": "%"}, {"measurement": "Key secondary composite endpoint, relative risk reduction", "setting": "[8]", "result": 26, "unit": "%"}, {"measurement": "Primary composite endpoint, relative risk reduction", "setting": "[8]", "result": 25, "unit": "%"}]}
